From patent US20040022782A1, “Cyclitol containing carbohydrates from human tissue which regulate glycogen metabolism” (Rodaris Pharmaceuticals Limited, priority 1996, published 2004)

Tests used:
[1] = molecular target: T1, pyruvate dehydrogenase phosphatase isolated from bovine heart (Bos taurus, UniProt P35816); experiment: Stimulation of pyruvate dehydrogenase (PDH) phosphatase; assay type: biochemical
T1 construct: pyruvate dehydrogenase phosphatase isolated from bovine heart; from tissue; host or cells: bovine heart
T1 sequence (P35816 72-538): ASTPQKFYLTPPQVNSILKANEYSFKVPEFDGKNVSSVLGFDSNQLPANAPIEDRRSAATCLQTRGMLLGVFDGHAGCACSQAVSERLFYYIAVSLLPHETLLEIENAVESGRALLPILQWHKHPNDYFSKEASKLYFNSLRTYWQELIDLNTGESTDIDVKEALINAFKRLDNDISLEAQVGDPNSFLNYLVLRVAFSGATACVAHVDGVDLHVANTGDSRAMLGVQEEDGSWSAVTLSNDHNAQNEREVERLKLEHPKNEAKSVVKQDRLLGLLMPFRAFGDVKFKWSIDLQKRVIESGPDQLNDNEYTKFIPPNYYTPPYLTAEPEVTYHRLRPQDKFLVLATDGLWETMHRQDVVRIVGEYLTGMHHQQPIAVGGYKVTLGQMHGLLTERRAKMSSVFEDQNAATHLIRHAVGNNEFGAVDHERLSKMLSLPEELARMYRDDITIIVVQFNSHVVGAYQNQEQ
T1 sequence (O46504 32-878 partner limits assumed): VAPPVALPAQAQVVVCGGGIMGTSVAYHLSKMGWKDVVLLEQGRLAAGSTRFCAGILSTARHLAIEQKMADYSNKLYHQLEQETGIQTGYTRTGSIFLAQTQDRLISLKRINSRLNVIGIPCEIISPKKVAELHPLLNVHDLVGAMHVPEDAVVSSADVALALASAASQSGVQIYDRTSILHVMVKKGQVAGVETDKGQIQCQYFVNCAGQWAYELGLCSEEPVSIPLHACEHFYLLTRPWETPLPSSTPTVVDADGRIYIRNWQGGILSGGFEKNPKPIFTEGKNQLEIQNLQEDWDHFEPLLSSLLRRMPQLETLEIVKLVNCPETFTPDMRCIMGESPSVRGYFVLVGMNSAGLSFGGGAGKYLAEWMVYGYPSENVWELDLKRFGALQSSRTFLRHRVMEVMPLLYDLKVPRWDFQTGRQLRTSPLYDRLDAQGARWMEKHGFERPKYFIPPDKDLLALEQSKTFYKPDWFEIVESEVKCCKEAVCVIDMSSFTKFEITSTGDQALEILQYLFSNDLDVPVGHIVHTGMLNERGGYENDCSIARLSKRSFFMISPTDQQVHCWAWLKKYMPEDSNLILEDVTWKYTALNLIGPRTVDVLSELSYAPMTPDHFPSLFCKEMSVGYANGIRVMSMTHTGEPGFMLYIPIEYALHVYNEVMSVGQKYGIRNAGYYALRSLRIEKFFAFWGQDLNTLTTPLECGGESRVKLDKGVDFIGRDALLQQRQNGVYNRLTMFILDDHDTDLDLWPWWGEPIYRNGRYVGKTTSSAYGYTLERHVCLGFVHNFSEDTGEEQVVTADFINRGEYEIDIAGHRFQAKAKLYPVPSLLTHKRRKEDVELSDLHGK
Protocol: Pyruvate dehydrogenase complex (PDC) and the PDH phosphatase were prepared and stored at −80° C. until use. The assay for both PDH phosphatases, in the presence of absence of insulin mediator, was based upon the initial rate of activation of inactivated, phosphorylated PDH complex. […] A two stage assay was used to quantitate the phosphatase activity. A sample of inactivated PDC (50 μL) was preincubated at 30° C. with 1 mg/mL fat-free BSA, 10 mM MgCl2, 0.1 mM CaCl2 and […] DTT in 20 mM potassium phosphate buffer at pH 7.0 (total volume 250 μL) for three minutes. At this time, 10 μL of the PDH phosphatase and 10 μL of IPG were added and the incubation continued for a further 2 min. At the end of this time, 200 μL of the mix was removed and added to 100 μL of 300 mM NaF. The activated PDH was determined at the second stage photometrically by measuring the rate of production of NADH. One hundred microliters of the stopped reaction were added to 1 mL of reaction mixture containing 50 mM potassium phosphate buffer at pH 8.0, 2.5 mM β-NAD^+, 0.2 mM TPP, 0.13 mM coenzyme A, 0.32 mM DTT and 2 mM sodium pyruvate. The production of NADH was followed at 340 nm for 5 min.
Three samples of liver P-type used. All were suspended on day of use at the rate of 1 g liver in […] water. All three preparations were tested before and after treatment with dithizone, while the one preparation was also treated with Mn after dithizone to attempt to reactivate it. The reactivation procedure was to preincubate a de-metallized sample with 2.7 mM Mn for 15 min before it was added to the inactivated PDH mix.
The P-1 sample used here was the same as that used in previous experiment although a second tube of that composite sample. The dithizone treated sample was the same as that used previously. For reactivation, the de-medalist sample was pre-incubated for 15 mins with either 2.7 mM Mn, 1.8 mM Zn or 2.7 mM Mn-1.8 mM Zn. All samples tested on normal assay system using 10 μl P′ase and 5 ul of sample.

rat liver = experiment: IPG release in rat liver following infusion with insulin; assay type: in vivo; conditions: 2 minutes after insulin infusion
Glycogen synthase = Glycogen synthase activity in rat fat cells; assay type: cell-based; conditions: 5 min incubation, 20 μl insulin (25 mU/ml) or 10 μl placenta IPG
Protocol: Glycogen synthase activity was assayed as follows. Fat cells were prepared from epididymal adipose tissue using 140-150 g rats (Wistar strain). Fat pads from 3 rats were cut into small pieces and incubated in 8 ml of Krebs ringer bicarbonate containing 2% albumin plus 24 mg of collagenase for 25 minutes at 37° C. The isolated cells were filtered and washed in 3×10 ml Krebs ringer phosphate medium containing 30 mg/ml of bovine serum albumin (Fraction v, Sigma), the pH was adjusted to 7.4 with NaOH after addition of albumin. The washed cells were also resuspended in Krebs ringer phosphate (10 ml of medium/g of original tissue).
For measurement of enzyme activities, three incubation vessels were set up, each contained 5 ml cells. There were no additions to the first, the second contained 20 μl insulin (25 mU/ml) and the third 10 μl placenta IPG. […]
The reaction was stopped with 0.5 ml cold buffer (100 mM KF/10 mM EDTA/1 mM benzamidine (4), pH 7.0) and the cells homogenized and transferred to Eppendorf tubes. These were spun at 10,000 g for 15 min and the middle layer collected for enzyme assay all tubes were set up in duplicate and measured in the presence of 0.01 mM glucose 6-phosphate except the maximally activated glycogen synthase tube which contained 7.2 mM glucose 6-phosphate. […] Glycogen synthase activity is expressed as a percentage of the total synthase activity (G6P maximum).

[2] = reactivation experiment, 10 μl P'ase and 5 ul of sample, 2.7 mM Mn, 1.8 mM Zn, Treated = dithizone

| Compound | effect on P'ase activity ([1]; 10^−4M Mn (assay no: 3)) | PDH phosphatase (activity) ([1]; +Mg2+ + Ca2+) | PDH phosphatase (activity) ([1]; +Mg2+, no Ca2+) | Units/g ([1]; dithizone experiment, Vol used 5 μl, Treated = dithizone, Mn 2.7 mM) | % stimulation ([1]; dithizone experiment, Vol used 5 μl, liver P-type 1 g liver in 10 μl water, Treated = dithizone, Mn 2.7 mM) | % stimulation [1, 2] | increase in PDH phosphatase stimulating activity of rat liver (rat liver) | Stimulation as % of G6P Maximum (Glycogen synthase) |
| --- | --- | --- | --- | --- | --- | --- | --- | --- |
| [Mn+2] [Mn, manganese] | no effect | Δ 0.680 OD/min (2) | Δ 0.000 OD/min (6) | 0 Units/g | −11% | +12% |  |  |
| [Zn+2] [Zn] |  |  |  |  |  | +122% |  |  |
| insulin |  |  |  |  |  |  | two-fold increase in activity | 6.54% |
